4 molecules from patent publication US11472832B2, “Withanolides useful for the treatment of neurodegenerative diseases” (priority 2013, dated 2022) can be followed below.

Like-named read-outs stand apart in the source and are kept apart here.

Series [1] has as its system NF-κB. Briefly: NF-κB luciferase reporter activity in BV2 microglial cells stimulated with LPS. It is filed as cell-based. As to conditions: BV-2 cells, LPS 100 ng/ml, 4 h. The protocol:
An NF-κB specific luciferase reporter system in BV-2 microglial cells was first established. This cell line was generated by stable transfection of BV-2 cells with stable insertion of a luciferase reporter 4 kBwt luciferase plasmid and subsequent selection with hygomycin. LPS was used to stimulate NF-κB activity in these cells. Twenty-five thousand hygromycin B-resistant BV-2 cells were seeded per well in 24-well dishes and allowed to adhere overnight. The next morning, the culture medium (DMEM+10% FBS) was removed and 1 ml of fresh medium (DMEM without FBS) added to each well. The stock solutions of withanolides (2 mg/ml in DMSO) were diluted in 1×PBS to various concentration (0.05 to 5 uM) and added to the wells. LPS was added one hour later at a final concentration of 100 ng/ml. Four hours later, the BV-2 cells were rinsed with 1×PBS prior to proceeding with the luciferase assay that was performed according to the manufacturer's instructions (Bright-Glo™ luciferase assay system, Promega, Wis.).
For orientation: Reporter assays use an easily measured gene product as a stand-in for the process of interest.

In series [2] the test system is NF-κB. Nature of the series: TNF-α-induced signalling activity in HEK293-NF-κB-luciferase reporter cell line. It is filed as cell-based. The note with it: HEK-293 cells; for IC50: TNF-alpha 40 ng/ml, 4 h, luciferase; for inhibition of NF-κB expression: TNF-alpha, 0.05 to 5 uM, FIG. 3. As for the experimental part: Ten thousand hygromycin B-resistant HEK-293 cells were seeded per well in a 96-well plate (Corning, New-York) and allowed to adhere overnight. The next morning, the culture medium (DMEM+10% FBS) was removed and […] of fresh medium (DMEM without FBS) added to each well. […] Human recombinant TNF-alpha (R&D Systems, Minneapolis) was added one hour later at a final concentration of 40 ng/ml. Four hours later, the HEK-293 cells were rinsed with 1×PBS prior to the luciferase assay, which was performed according to the manufacturer's instructions (Bright-Glo™ luciferase assay system, Promega, Wis.).

Series [3] deals with TDP-43 A315T transgenic mice. The note with it: 5 mg/kg i.p. every 2 days for 15 weeks. The protocol: The TDP-43 A315T mouse model for ALS is fully described in Swamp, V et al., Brain 134: 2610-2626 2011.
Male and female TDP-43 A315T mice of approximately 9 months and 25-55 gm were included in the study, and were randomly assigned to three groups, as follows:
Group 2 (n=7) (the control group) received vehicle (2% polysorbate [Tween-80]/5% DMSO/93% saline); and
The injection volume at 12.5 mL/kg was based on the body weight of each individual animal at the start of the study.
Accelerating rotarod (as described in Gros-Louis, F., et al. Hum Mol Genet 17, 2691-2702 (2008)) was performed prior to first dosing and at weekly interval during the study. Testing was performed at 4-rpm speed with 0.25 rpm/s acceleration. Each mouse was subjected to three trials per session. The number of seconds each mouse remained on the rotarod apparatus for each trial was recorded.

For series [4], the system named is C57BL/6 female mice. As to conditions: i.p.; for clinical observations post-dosing: 65 mg/kg; for safety profile compared with WA: 20 to 65 mg/kg.
Series [5] deals with LPS-induced astrogliosis (GFAP promoter luciferase reporter). The note with it: GFAP-luc mice, LPS inhaled, 4 mg/kg i.p. 2 h after LPS and 2 h before imaging, imaging 24 h after LPS.
Protocol: In vivo bioluminescence imaging was performed to asses the inflammatory response in the cranial region.
GFAP-luc transgenic mice were used to test in vivo the efficacy of these analogs. In these transgenic mice, the firefly luciferase reporter gene is under the control of a 12 kb DNA fragment of the glial fibrillary acidic protein (GFAP) promoter (Caliper Life Sciences). The luciferase reporter is inducible following LPS administration resulting in GFAP transcriptional regulation. If the administration of test compounds following the injection of LPS decreases LPS-induced astrogliosis in GFAP-luc mice, this is visualized as a reduced bioluminescent signal upon imaging.
Transgenic mice under anesthesia were induced to inhale either 5 ul of a solution of LPS (1 mg/ml in 0.9% saline) or a solution of 0.9% saline alone followed 2 h later by an intraperitoneal (i.p.) injection of 0.5 ml of the test compounds (10% dilution in 0.9% saline) at a final concentration of 4 mg/kg. The following day, 2 h before imaging (24 h after the administration of the LPS solution), the transgenic mice were again injected with the withanolides as previously. Twenty minutes prior to imaging, the mice received an i.p. injection of the luciferase substrate D-luciferin (150 mg/kg). D-luciferin was dissolved in 0.9% saline to a final concentration of 20 mg/ml. […]

What is called IC50 is the concentration at which inhibition is half-maximal.

In series [1], `COCC1=C(C)C[C@H]([C@@H](C)[C@H]2CC[C@H]3[C@@H]4C[C@H]5O[C@]56[C@@H](OC)C=CC(=O)[C@]6(C)[C@H]4CC[C@]23C)OC1=O` [4,27-O-dimethyl WA, 4,27-O-dimethylwithaferin A] registered an IC50 of 800 nM. Further, in series [2], the IC50 was determined as 450 nM and the “inhibition of NF-κB expression” value was “inhibited NF-κB expression”.
For `CO[C@H]1C=CC(=O)[C@]2(C)[C@H]3CC[C@]4(C)[C@@H]([C@H](C)[C@H]5CC(C)=C(CO)C(=O)O5)CC[C@H]4[C@@H]3C[C@H]3O[C@]132` [4-O-methyl WA, 4-O-methylwithaferin A], in series [1], the IC50 was 970 nM. Moreover, the “rotarod performance over the 15 week period” value in series [3] was “improved”. For the same molecule, the mortality result in series [4] (55 mg/kg) is on record as “no mortality”. In series [4], the clinical observations post-dosing entry was “some weakness and a decrease in activity”; the “safety profile compared with WA” value was “much better safety profile than WA”. In addition, in series [4] (65 mg/kg (highest dose tested)), the mortality result is recorded as “no mortality”. Also, in series [2], the IC50 stood at 320 nM and the “inhibition of NF-κB expression” value is listed as “inhibited NF-κB expression”. In series [5], the “bioluminescent signal in brain (astrogliosis) compared to saline-DMSO” value is recorded as “significant decrease”.
Take `COCC1=C(C)C[C@H]([C@@H](C)[C@H]2CC[C@H]3[C@@H]4C[C@H]5O[C@]56[C@@H](O)C=CC(=O)[C@]6(C)[C@H]4CC[C@]23C)OC1=O` [27-O-methyl WA, 27-O-methylwithaferin A]: the figures for the IC50 in series [1] and in series [2] were 710 nM and 260 nM, respectively. Besides, the “rotarod performance over the 15 week period” value in series [3] is reported as “improved”. Besides, the mortality result in series [4] (55 mg/kg) and in series [4] (65 mg/kg (highest dose tested)) was “no mortality” throughout. The clinical observations post-dosing result in series [4] was “some weakness and a decrease in activity”. Besides, in series [4], the “safety profile compared with WA” value is on record as “much better safety profile than WA”. Moreover, the “inhibition of NF-κB expression” value in series [2] is given as “inhibited NF-κB expression”. For the same molecule, in series [5], the “bioluminescent signal in brain (astrogliosis) compared to saline-DMSO” value is recorded as “significant decrease”.
Take `CC1=C(CO)C(=O)O[C@@H]([C@@H](C)[C@H]2CC[C@H]3[C@@H]4C[C@H]5O[C@]56[C@@H](O)C=CC(=O)[C@]6(C)[C@H]4CC[C@]23C)C1` [WA, Withaferin A, reference compound]: the IC50 in series [1] (Mus musculus) amounted to 500 nM; in series [2] (Homo sapiens, HEK293) it was 340 nM.
